Laboratory results taken from ChEMBL document CHEMBL1150998, “Enzymatic resolution of AMPA by use of -chymotrypsin” (Bioorg Med Chem Lett, 1993).

Assays:
[1] = biological target: Glutamate receptor ionotropic, AMPA (Rattus norvegicus, UniProt P19490+P19491+P19492+P19493); test: Tested for the inhibitory activity of against Ionotropic glutamate receptor AMPA by [3H]- AMPA binding assay; format: protein-complex assay
[2] = organism: Rattus norvegicus; test: Tested in vitro for the dose response curve in rat cortical wedge preparation

IC50 [1]	SMILES	EC50 [2]
> 100 µM	CCOC(=O)C(N)Cc1c(OCC)noc1C (stereo not drawn)	–
–	Cc1onc(O)c1CC(N)C(=O)O (single isomer, unassigned; form 1)	3.8 µM
–	Cc1onc(O)c1CC(N)C(=O)O (single isomer, unassigned; form 2)	580 µM
